Data on one compound can be found in publication PMC3750255, “Inhibition of Mycoplasma pneumoniae growth by FDA-approved anticancer and antiviral nucleoside and nucleobase analogs” (BMC Microbiology, 2013).

The term IC50 denotes the concentration that gives 50% inhibition.

Experiment [1] concerns M. pneumoniae thyA mutant (lacking TS activity). The experiment can be described thus: microbe, parasite or virus in culture. To be noted: minimal concentration producing 90% inhibition; thyA mutant Mpn. It counts as cell-based, Mycoplasma pneumoniae. As for the experimental part:
(§1) A series dilution of each compound in Mycoplasma growth medium was added to Mpn cultures in 96-well plates. The plates were sealed and incubated at 37°C. Mpn growth was monitored by using growth index value e.g. the ratio of absorbance at 450 nm and 560 nm of the culture medium. Thirty nucleoside and nucleobase analogs and a nucleoside transporter inhibitor were included, and two Mpn strains, wild type and a thyA mutant (lacking TS activity), were used.
(§2) Nucleoside and nucleobase analogs were dissolved in dimethyl sulfoxide (DMSO) as stock solutions and diluted with Mpn culture medium to the desired concentration immediately prior to use.
(§3) Mpn laboratory strain M129 wild type and a thyA mutant strain [31] were used in this study. Mpn was cultured at 37°C in a CO2 incubator using 75 cm^2 tissue culture flasks containing 50 ml Hayflick’s medium, and harvested at day 4 when the medium color change was observed. The cells were harvested and the pellet was resuspended in 6 ml fresh medium and the cfu/ml was determined by serial dilution (10-fold) and plating on broth agar plate. Colonies was counted and cfu/ml was calculated.
(§4) Inhibition studies were performed in 96-well plates containing 200 μl Mpn culture (approximately 10^6 cfu ml^-1) in Hayflick’s medium and 200 μl each compound in series dilutions (2-fold) with the growth medium, with three to four replicas. The plates were sealed with clear adhesive sheets and incubated at 37°C incubator. Absorbance ratio at 450 nm and 560 nm was used as Mpn growth index, which was measured daily, and by visual detection for at least 8 days, as previously described. […] The MICs (minimal inhibitory concentration required to inhibit Mpn growth to 90%) were determined as the lowest concentration at which the growth index was ≈ 10% of the control values (at the time when the control culture medium color turned yellow), essentially as described.

The test system of experiment [2] is M. pneumoniae wild type (laboratory strain M129). The experiment can be described thus: Mpn growth inhibition in 96-well plates (growth index A450/A560), wild type strain. It counts as cell-based, Mycoplasma pneumoniae. To be noted: for MIC (Mpn growth): as stated in the text, strain not specified, 90% growth inhibition. The protocol:
as §1, §2, §3, §4

The next experiment has as its system Mpn TS. In words: TS activity in total protein extracts of Mpn cultured with TFT. It counts as cell-based. To be noted: various concentrations of TFT, 70 hours culture. The protocol:
Total proteins were extracted from these cultures and used to determine the TK and TS activity.
Mpn wild type cells were cultured in the presence of [^3H]-dT and different concentrations of TFT. The cells were incubated at 37°C for 70 hours and harvested. The total uptake and incorporation of [^3H]-dT were analysed, and TK and TS activity were determined in total protein extracts.
To determine the effect of TFT on TK and TS activity, Mpn wild type cells were cultured in 75 cm^2 tissue culture flasks containing 50 ml medium, inoculated with 3 ml of stock culture (1 × 10^9 cfu/ml), in the presence of [^3H]-dT (1 μCi ml^-1) and different concentrations of TFT. After 70 hours at 37°C the cultures were harvested and divided to two aliquots, one was used to determine total uptake/metabolism of radiolabeled dT and total proteins were extracted from the other aliquot and used to measure TK and TS activity using [^3H]-dT and [5-^3H]-dUMP as substrates.

Another experiment concerns the target T1, TK in Mpn extracts (Mycoplasmoides pneumoniae, UniProt P75070).
T1 construct: endogenous in cells; host or cells: Mycoplasma pneumoniae M129 total protein extract
T1 sequence (P75070 1-191): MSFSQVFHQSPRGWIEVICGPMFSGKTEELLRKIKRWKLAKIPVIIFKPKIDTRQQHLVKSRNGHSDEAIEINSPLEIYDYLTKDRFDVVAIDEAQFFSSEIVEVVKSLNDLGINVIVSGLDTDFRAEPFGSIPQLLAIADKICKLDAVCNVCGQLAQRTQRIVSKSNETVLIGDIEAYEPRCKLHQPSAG
The experiment can be described thus: Inhibition of dT phosphorylation in Mpn protein extracts. It counts as biochemical. To be noted: 10 μM tritium labelled thymidine; read-out: IC50 Mpn extracts. The protocol:
Both TFT and 5FdU are substrates of Mycoplasma and human TKs, as described above and earlier studies.
Thymidine kinase assay was performed using tritium labelled thymidine ([^3H]-dT) as substrate and various concentrations of the inhibitors essentially as previously described to determine the IC50 values of TFT and 5FdU.

≈ marks a conversion by molar mass, not a printed value.

As for `O=c1[nH]c(=O)n([C@H]2C[C@H](O)[C@@H](CO)O2)cc1C(F)(F)F` [Trifluorothymidine (TFT), Trifluorothymidine], the “thyA mutant MIC” value in experiment [1] was 1.8 µg/mL. Besides, the “MIC (Mpn growth)” value in experiment [2] (listed as trifluorothymidine) is “approximately 2 μg ml^-1”; in experiment [2] (listed as trifluorothymidine (TFT)), 1.8 µg/mL (≈ 6.08 µM). Moreover, the “Wild type MIC” value in experiment [2] (minimal concentration producing 90% inhibition, wild type Mpn) is 1.8 µg/mL. Moreover, the “TS activity (in words)” value in the experiment on Mpn TS is listed as “unchanged”. Further, at TK in Mpn extracts, the IC50 amounted to 9.1 ± 2.9 µM.
